In US20260193254A1, “2-OXOQUINAZOLINE CRYSTALLINE FORMS” (IDEAYA Biosciences, Inc., priority 2022, published 2026):

How the values were obtained:
Format in all cases: physicochemical
[1] = Variable humidity and temperature XRPD experiments
Experimental: Based on DVS and DSC results of Form C, Form C starts to loss water when humidity is below 30% or when temperature is higher than about 44° C. […] In order to determine identity of potential form changes after the dehydration and upon the solid-solid transition, variable humidity and variable temperature XRPD techniques were applied. XRPD patterns of the sample were measured online under 25° C./ambient environment (initial)-120° C./N2 protection-25° C./ambient environment-25° C./80% RH (40 min)-25° C./0% RH (15 h), and 25° C./ambient environment (initial)-250° C./N2 protection-25° C./ambient environment. […] Form L coverts back to Form C after exposure to 25° C./80% RH for 40 min.
Based on DVS and DSC results of Form D, Form D starts to loss water when humidity is below 10% or when temperature is higher than 46° C. In order to determine identity of the dehydration product, variable humidity and variable temperature XRPD techniques were applied. XRPD patterns of the sample were measured online with a temperature cycle of 25° C./ambient environment (initial)-130° C./N2 protection (10 min)-25° C./N2 protection-25° C./ambient environment (3h) and two water sorption and desorption cycles of 50% RH (initial)-90% RH (3h)-60% RH (2h)-40% RH (2h)-20% RH (3h)-10% RH (3h)-0% RH (6h)-10% RH (3h)-20% RH (3h)-50% RH at 25° C. […] (higher than dehydration temperature). Form S converts back to Form D after exposure to ambient condition for 3 h.
In order to investigate potential form change of Form A upon heating, variable temperature XRPD technique was applied. XRPD patterns of the sample were measured online with a temperature cycle of 25° C. (initial)-50° C./N2 protection-70° C./N2 protection-250° C./N2 protection-25° C./N2 protection-25° C./ambient condition (3h). […] Form A converts to Form U when temperature is 250° C., and Form U converts to Form T after cooling to 25° C.

[2] = Hygroscopicity: water sorption and desorption by dynamic vapor sorption (DVS)
Experimental: In some embodiments, the crystalline form described herein is further characterized by is further characterized by a dynamic vapor sorption (DVS) profile. In some embodiments, a DVS is recorded according to the method as described herein with a cycle of 40-0-95-0-40% RH at 25° C.
Water sorption and desorption behaviors of Form A, Form C, Form D, and Form T were investigated by DVS at 25° C. with a cycle of 40-0-95-0-40% RH. Dm/dt was 0.002. Minimum equilibration time was 60 min. Maximum equilibration time was 360 min. XRPD was measured after DVS test to determine potential form change.

[3] = Grinding simulation experiments - dry grinding
Experimental: About 20 mg of Form A, Form D, and Form T were ground manually with a mortar and a pestle for 5 min or 1 min. Potential from transition and degree of crystallinity were evaluated by XRPD.

[4] = Variable humidity and temperature XRPD experiments; remark: listed apart in the source
[5] = Behavior under compression; details: 2 Mpa/2 min, hydraulic press
Experimental: XRPD characterization was performed to investigate polymorphic behavior under compression.

[6] = Equilibration with solvents at 50° C. for 1 week; details: XRPD of wet cake
Experimental: Obtained suspension was filtered. The solid part (wet cake) was investigated by XRPD. When differences were observed, additional investigations were performed (e.g. DSC, TGA etc.).

[7] = Crystallization from hot saturated solutions by fast cooling; details: 50° C. to ice bath
Experimental: Obtained solution or suspension was filtered by a 0.45 μm syringe membrane filter. Clear solutions were put into an ice bath and agitated. Precipitates were collected by filtration. The solid part (wet cake) was investigated by XRPD. When differences were observed, additional investigations were performed (e.g. DSC, TGA, etc.).

[8] = Crystallization at room temperature by fast evaporation; details: nitrogen flow
Source text: The samples are filtered by 0.45 μm nylon filter. Obtained solutions were fast evaporated under nitrogen flow. Solid residues were examined for their polymorphic form.

[9] = Precipitation by addition of anti-solvent; details: 1/5 (v:v)
Experimental: Anti-solvent was added into the obtained solutions slowly. Precipitates were collected by filtration. The solid part (wet cake) was investigated by XRPD. When differences were observed, additional investigations will be performed (e.g. […] etc.).

[10] = variable temperature XRPD, N2 protection

SMILES: Nc1nc(=O)n(-c2ccccc2Cl)c2nc(C(F)(F)F)ccc12 [Form A, 4-Amino-1-(2-chlorophenyl)-7-(trifluoromethyl)pyrido[2,3-d]pyrimidin-2(1H)-one]
- XRPD (XRPD method 2) ([1]; VT16 70° C./37% RH (10 min)): Form A
- XRPD (XRPD method 2) ([1]; VT18 25° C./N2 protection (10 min)): Form T
- XRPD (XRPD method 2) ([1]; VT19 25° C./37% RH (3 h)): Form T
- form change after heating to 70° C. [1, 10]: no form change
- form obtained on heating to 250° C. [1, 10]: Form U
- hygroscopicity ([2]; DVS at 25° C., cycle 40-0-95-0-40% RH): slightly hygroscopic
- water uptake ([2]; DVS, in 95% RH at 25° C.): 0.7%
- form change after the DVS test ([2]; XRPD after DVS): No form change
- XRPD after dry grinding ([3]; Dry grinding for 1 min): substantially amorphous
- XRPD after dry grinding ([3]; Dry grinding for 5 min): substantially amorphous
- tolerance to dry grinding ([3]; ground manually with mortar and pestle, 5 min or 1 min, XRPD): poor tolerance
- XRPD (XRPD method 2) ([4]; VT14 25° C./37% RH (initial)): Form A
- XRPD (XRPD method 2) ([4]; VT15 50° C./37% RH (10 min)): Form A
- XRPD (XRPD method 2) ([4]; VT17 250° C./37% RH (10 min)): Form U

SMILES: Nc1nc(=O)n(-c2ccccc2Cl)c2nc(C(F)(F)F)ccc12 [solid state Form V, 4-Amino-1-(2-chlorophenyl)-7-(trifluoromethyl)pyrido[2,3-d]pyrimidin-2(1H)-one]
- XRPD after compression [5]: No form change
- Crystalline Form formed by equilibration ([6]; EQ20 Water (64 mg/mL)): Form D (mono hydrate)
- Crystalline Form formed by equilibration ([6]; EQ21 Methanol (63 mg/mL)): Form C (hemi-hydrate)
- Crystalline Form formed by equilibration ([6]; EQ22 Methanol/water = 1/1 (v/v) (64 mg/mL)): Form E (hemi-hydrate)
- Crystalline Form formed by equilibration ([6]; EQ24 Ethanol/water = 1/1 (v/v) (63 mg/mL)): Form C (hemi-hydrate)
- Crystalline Form formed by equilibration ([6]; EQ26 Acetone (65 mg/mL)): Form G
- Crystalline Form formed by equilibration ([6]; EQ27 Acetone/water = 1/1 (v/v) (63 mg/mL)): Form I
- Crystalline Form formed by equilibration ([6]; EQ29 t-Butyl methyl ether (65 mg/mL)): Form H (MTBE solvate)
- Crystalline Form formed by equilibration ([6]; EQ30 t-Butyl methyl ether/water = 95/5 (v/v) (63 mg/mL)): Form H (MTBE solvate)
- Crystalline Form formed by fast cooling of hot saturated solution ([7]; FC1 Methanol (30 mg/mL)): Form C
- Crystalline Form formed by fast cooling of hot saturated solution ([7]; FC2 Ethanol (13 mg/mL)): Solid state Form V
- Crystalline Form formed by fast cooling of hot saturated solution ([7]; FC3 2-Propanol (7 mg/mL)): Form J (IPA solvate)
- Crystalline Form formed by fast cooling of hot saturated solution ([7]; FC4 Acetone (7 mg/mL)): Form G
- Crystalline Form formed by fast cooling of hot saturated solution ([7]; FC5 Methanol/water = 1/1 (v/v) (6 mg/mL)): Form C
- Crystalline Form formed by fast cooling of hot saturated solution ([7]; FC6 Ethanol/water = 1/1 (v/v) (8 mg/mL)): Form F
- Crystalline Form formed by fast cooling of hot saturated solution ([7]; FC7 Methanol/MTBE = 1/1 (v/v) (13 mg/mL)): Form H (MTBE solvate)
- Crystalline Form formed by fast evaporation ([8]; FE1 Methanol (14 mg/mL)): Form B
- Crystalline Form formed by fast evaporation ([8]; FE2 Ethanol (7 mg/mL)): Solid state Form V
- Crystalline Form formed by fast evaporation ([8]; FE3 2-Propanol (4 mg/mL)): Solid state Form V
- Crystalline Form formed by fast evaporation ([8]; FE6 Acetone (3 mg/mL)): Form G
- Crystalline Form formed by fast evaporation ([8]; FE7 Methyl ethyl ketone (3 mg/mL)): Form G
- Crystalline Form formed by fast evaporation ([8]; FE9 Tetrahydrofuran (4 mg/mL)): Form K
- Crystalline Form formed by fast evaporation ([8]; FE10 Acetonitrile (3 mg/mL)): Solid state Form V
- Crystalline Form formed by fast evaporation ([8]; FE12 Methanol/Ethyl acetate = 1/1 (v/v) (5 mg/mL)): Solid state Form V
- Crystalline Form formed by fast evaporation ([8]; FE13 Methanol/Acetonitrile = 1/1 (v/v) (5 mg/mL)): Solid state Form V
- Crystalline Form formed by fast evaporation ([8]; FE14 Ethanol/t-Butyl methyl ether = 1/1 (v/v) (5 mg/mL)): Solid state Form V
- Crystalline Form formed by fast evaporation ([8]; FE15 Ethanol/Dichloromethane = 1/1 (v/v) (5 mg/mL)): Solid state Form V
- Crystalline Form formed by addition of anti-solvent ([9]; AS5 Ethanol (7), anti-solvent Heptane): Form G
- Crystalline Form formed by addition of anti-solvent ([9]; AS8 Ethanol (7), anti-solvent Water): Form F
